Laboratory results published in US20240228504A1, “SUBSTITUTED TRICYCLIC AMIDES, ANALOGUES THEREOF, AND METHODS USING SAME” (Arbutus Biopharma Corporation, priority 2020, published 2024).
Where two headings read alike, the source gives them in different places.

System: HBV rcDNA in HepDE19 cells
Assay: HepDE19 assay with bDNA quantitation of HBV rcDNA
Assay type: cell-based, hepatitis B virus
Details: inhibition of rcDNA formation, bDNA quantitation, read-out: DE-19bDNA EC50
[1] = Hepatitis B virus, HepDE19, HepDE19 assay

Structure (SMILES) | EC50 [1] [nM] | EC50 (HepDE19 assay) [nM]
CN([C@@H]1COCc2[nH]c(=O)c3cc(F)c(F)cc3c21)S(=O)(=O)c1cccc(C#N)c1 [Compound 145, (S)-3-Cyano-N-(8,9-difluoro-6-oxo-1,4,5,6-tetrahydro-2H-pyrano[3,4-c]isoquinolin-1-yl)-N-methylbenzenesulfonamide] | 5500 | 
CN(C(=O)c1cc2cc(C(F)(F)F)cnc2[nH]1)[C@@H]1COCc2[nH]c(=O)c3cc(F)c(F)cc3c21 [Compound 214, (S)-N-(8,9-difluoro-6-oxo-1,4,5,6-tetrahydro-2H-pyrano[3,4-c]isoquinolin-1-yl)-N-methyl-5-(trifluoromethyl)-1H-pyrrolo[2,3-b]pyridine-2-carboxamide] | 1000 | 
CN(C(=O)c1cc2ccccc2[nH]1)C1COCc2[nH]c(=O)c3cc(F)ccc3c21 (single isomer, unassigned) [Compound 2, N-(8-Fluoro-6-oxo-1,4,5,6-tetrahydro-2H-pyrano[3,4-c]isoquinolin-1-yl)-N-methyl-1H-indole-2-carboxamide] |  | 20
CN(C(=O)C1Cc2c(F)cc(F)cc2N1)C1COCc2[nH]c(=O)c3cc(F)c(F)cc3c21 (stereo not drawn) [Compound 15, N-(8,9-Difluoro-6-oxo-1,4,5,6-tetrahydro-2H-pyrano[3,4-c]isoquinolin-1-yl)-4,6-difluoro-N-methylindoline-2-carboxamide] |  | 960
CN(C(=O)c1cc2occc2[nH]1)[C@@H]1COCc2[nH]c(=O)c3cc(F)c(F)cc3c21 [Compound 314, (S)-N-(8,9-Difluoro-6-oxo-1,4,5,6-tetrahydro-2H-pyrano[3,4-c]isoquinolin-1-yl)-N-methyl-4H-furo[3,2-b]pyrrole-5-carboxamide] | 150 | 
CN(C(=O)C1Cc2cc(F)ccc2N1)C1COCc2[nH]c(=O)c3cc(F)c(F)cc3c21 (single isomer, unassigned) [Compound 7, N-(8,9-Difluoro-6-oxo-1,4,5,6-tetrahydro-2H-pyrano[3,4-c]isoquinolin-1-yl)-5-fluoro-N-methylindoline-2-carboxamide] |  | 10
CN(C(=O)c1ccc(-c2ccccc2F)cc1)[C@@H]1COCc2[nH]c(=O)c3cc(F)c(F)cc3c21 [Compound 285, (S)-N-(8,9-Difluoro-6-oxo-1,4,5,6-tetrahydro-2H-pyrano[3,4-c]isoquinolin-1-yl)-2′-fluoro-N-methyl-[1,1′-biphenyl]-4-carboxamide] | 19700 | 
CN(C(=O)c1ccc2ocnc2c1)[C@@H]1COCc2[nH]c(=O)c3cc(F)c(F)cc3c21 [Compound 426, (S)-N-(8,9-Difluoro-6-oxo-1,4,5,6-tetrahydro-2H-pyrano[3,4-c]isoquinolin-1-yl)-N-methylbenzo[d]oxazole-5-carboxamide] | 90 | 
COc1ccc2cc(C(=O)N(C)[C@@H]3COCc4[nH]c(=O)c5cc(F)c(F)cc5c43)[nH]c2c1 [Compound 364, (S)-N-(8,9-Difluoro-6-oxo-1,4,5,6-tetrahydro-2H-pyrano[3,4-c]isoquinolin-1-yl)-6-methoxy-N-methyl-1H-indole-2-carboxamide] | 30 | 
CN(C(=O)c1ccc2cccn2c1)C1COCc2[nH]c(=O)c3cc(F)ccc3c21 (single isomer, unassigned) [Compound 390, N-(8-Fluoro-6-oxo-1,4,5,6-tetrahydro-2H-pyrano[3,4-c]isoquinolin-1-yl)-N-methylindolizine-6-carboxamide] |  | 70
CN(C(=O)c1cc2cc(F)ccc2[nH]1)C1COCc2[nH]c(=O)c3cc(F)c(F)cc3c21 (single isomer, unassigned) [Compound 27, N-(8,9-Difluoro-6-oxo-1,4,5,6-tetrahydro-2H-pyrano[3,4-c]isoquinolin-1-yl)-5-fluoro-N-methyl-1H-indole-2-carboxamide] |  | 370
CN(C(=O)c1cc2cc(F)c(F)cc2[nH]1)[C@@H]1COCc2nc(OCCO)c3cc(F)c(F)cc3c21 [Compound 317, (S)-N-(8,9-Difluoro-6-(2-hydroxyethoxy)-1,4-dihydro-2H-pyrano[3,4-c]isoquinolin-1-yl)-5,6-difluoro-N-methyl-1H-indole-2-carboxamide] | 10 | 
CN(C(=O)c1cc2c(C(F)F)cccc2[nH]1)C1COCc2[nH]c(=O)c3cc(F)ccc3c21 (single isomer, unassigned) [Compound 181, 4-(Difluoromethyl)-N-(8-fluoro-6-oxo-1,4,5,6-tetrahydro-2H-pyrano[3,4-c]isoquinolin-1-yl)-N-methyl-1H-indole-2-carboxamide] |  | 5500
CN(C(=O)c1cc2c(F)c(F)ccc2[nH]1)C1CNCc2[nH]c(=O)c3cc(F)c(F)cc3c21 (single isomer, unassigned) [Compound 119, N-(8,9-Difluoro-6-oxo-1,2,3,4,5,6-hexahydrobenzo[c][1,7]naphthyridin-1-yl)-4,5-difluoro-N-methyl-1H-indole-2-carboxamide] |  | 10
Cc1cccc2[nH]c(C(=O)N(C)[C@@H]3COCc4[nH]c(=O)c5cc(F)c(F)cc5c43)cc12 [Compound 330, (S)-N-(8,9-Difluoro-6-oxo-1,4,5,6-tetrahydro-2H-pyrano[3,4-c]isoquinolin-1-yl)-N,4-dimethyl-1H-indole-2-carboxamide] | 10 | 
CN(Cc1cc2cc(F)c(F)cc2[nH]1)[C@@H]1COCc2[nH]c(=O)c3cc(F)c(F)cc3c21 [Compound 494, (S)-1-(((5,6-difluoro-1H-indol-2-yl)methyl)(methyl)amino)-8,9-difluoro-1,5-dihydro-2H-pyrano[3,4-c]isoquinolin-6(4H)-one] | 1500 | 
CN(C(=O)c1cc2ccccc2[nH]1)C1COCc2[nH]c(=O)c3cc(F)c(F)cc3c21 (single isomer, unassigned) [Compound 22, N-(8,9-Difluoro-6-oxo-1,4,5,6-tetrahydro-2H-pyrano[3,4-c]isoquinolin-1-yl)-N-methyl-1H-indole-2-carboxamide] |  | 10
CN(C(=O)c1ccc2ccc(Cl)n2c1)[C@@H]1COCc2[nH]c(=O)c3cc(F)c(F)cc3c21 [Compound 366, (S)-3-Chloro-N-(8,9-difluoro-6-oxo-1,4,5,6-tetrahydro-2H-pyrano[3,4-c]isoquinolin-1-yl)-N-methylindolizine-6-carboxamide] | 100 | 
